The values below come from patent US9415096B2 (priority 2007, dated 2016).

For series [1], the system named is PK-8 cells. As to the kind of experiment: Cytotoxicity test (chromium release assay) of peptide-induced killer T cells against PK-8. To be noted: killer T cells from breast cancer patients induced with the peptide; PK-8 HLA-A2 negative, FOXM1 positive.
Series [2] relates to panc-1 cells. As to the kind of experiment: Cytotoxicity test (chromium release assay) of peptide-induced killer T cells against panc-1. The following applies: for HLA-A2 restricted and FOXM1-specific cytotoxic activity of induced killer T cells: chromium release assay, panc-1 (HLA-A2 positive) versus PK-8 (HLA-A2 negative); for cytotoxic activity against panc-1 cells: killer T cells from breast cancer patients induced with the peptide, panc-1 HLA-A2 positive, FOXM1-expressing.

Ends that are not written are not given here.

Consider GLMDLSTTPL [FOXM1 640-649, GLMDLSTTPL], for which the “cytotoxic activity against PK-8 cells” value in series [1] is reported as “did not show cytotoxic activity”. Further, in series [2], the “HLA-A2 restricted and FOXM1-specific cytotoxic activity of induced killer T cells” value was “HLA-A2 restricted and FOXM1-specific cytotoxic activity was observed”; the “cytotoxic activity against panc-1 cells” value is on record as “strong cytotoxic activity”.

For SLVLQPSVKV [FOXM1 373-382, SLVLQPSVKV], in series [1], the “cytotoxic activity against PK-8 cells” value was “did not show cytotoxic activity”. Further, in series [2], the “HLA-A2 restricted and FOXM1-specific cytotoxic activity of induced killer T cells” value was “HLA-A2 restricted and FOXM1-specific cytotoxic activity was observed”; the “cytotoxic activity against panc-1 cells” value is reported as “strong cytotoxic activity”.

For the sequence YLVPIQFPV [FOXM1 362-370, YLVPIQFPV], the “cytotoxic activity against PK-8 cells” value in series [1] is reported as “did not show cytotoxic activity”. For the same sequence, in series [2], the “HLA-A2 restricted and FOXM1-specific cytotoxic activity of induced killer T cells” value is “HLA-A2 restricted and FOXM1-specific cytotoxic activity was observed”; the “cytotoxic activity against panc-1 cells” value is given as “strong cytotoxic activity”.
